Reference: US10941158B2, “Pyrazole ACC inhibitors and uses thereof” (Gilead Apollo, LLC, priority 2015, dated 2021)
Values after ≈ are worked out from the molar mass of the structure shown. Read-outs that look alike come from different tables or passages of the source.

How the values were obtained:
human (hACC2) ACC2 = human (hACC2) ACC2 (Homo sapiens, UniProt O00763); test: In vitro Acetyl-CoA Carboxylase (ACC) inhibition assay (ADP-Glo), hACC2; type: biochemical
Procedure: The detailed procedure is as follows. […] 10 μL ADP glo reagent was added. […] 20 μL kinase detection reagent was added.
“NA” stands for “not assayed.”

Rhizoctonia solani (Rs) = test: Growth inhibition assay of fungal pathogens; type: cell-based; conditions: 48 h, read-out: Concentration at 90% Inhibition Rs
How it was run: (§1)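 Spores of Fm, Bc and Dm were suspended in 17% V8 liquid medium, while Rs was inoculated as 1.5 mm mycelial plugs in ¼ PDB. Compounds were tested at final 50, 10 and 2 ppm or 2, 0.4 and 0.08 ppm. Percent growth inhibition at 48 h versus 2% DMSO came from OD600 and visual ratings.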

[1] = tested on: Collectotrichum graminicola (Cg); test: Growth inhibition assay of fungal pathogens; type: cell-based; conditions: 48 h, read-out: Concentration at 90% Inhibition Cg
How it was run: (§2)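 Compounds in DMSO tested at final 50, 10, 2 ppm or 2, 0.4, 0.08 ppm. Spores in 17% V8 medium, or 1.5 mm mycelial plugs in ¼ PDB for R. solani, incubated with compound. OD600 and visual ratings at 48 h versus 2% DMSO control gave percent growth inhibition.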

Septoria tritici (St) = test: Growth inhibition assay of fungal pathogens; type: cell-based; conditions: 48 hours; for IC90: Zymoseptoria tritici, read-out: Concentration at 90% Inhibition St
How it was run: as §2

Diplodia maydis (Dm) = test: Growth inhibition assay of fungal pathogens; type: cell-based; conditions: Stenocarpella maydis, 48 h, read-out: Concentration at 90% Inhibition Dm
How it was run: as §1

[2] = tested on: Phytophthora capsici (Pc); test: Growth inhibition assay of fungal pathogens; type: cell-based; conditions: 48 hours; for IC90: Phytophthora capsici, read-out: Concentration at 90% Inhibition Pc
How it was run: as §2

[3] = tested on: Fusarium moniliforme (Fm); test: Growth inhibition assay of fungal pathogens; type: cell-based; conditions: Fusarium verticillioides, 48 h, 48 hours, read-out: Concentration at 90% Inhibition Fm
How it was run: as §1

[4] = tested on: Fusarium virguliforme (Fv); test: Growth inhibition assay of fungal pathogens; type: cell-based; conditions: 48 h, 48 hours, read-out: Concentration at 90% Inhibition Fv
How it was run: as §2

Botrtyis cinerea (Bc) = test: Growth inhibition assay of fungal pathogens; type: cell-based; conditions: 48 h, read-out: Concentration at 90% Inhibition Bc
How it was run: as §1

fungal (fACC2) ACC2 = fungal (fACC2) ACC2 (UniProt Q00955); conditions: read-out: fACC2 IC50; fungal ACC2, ADP-Glo
fungal (fACC2) ACC2, sequence (Q00955 whole entry): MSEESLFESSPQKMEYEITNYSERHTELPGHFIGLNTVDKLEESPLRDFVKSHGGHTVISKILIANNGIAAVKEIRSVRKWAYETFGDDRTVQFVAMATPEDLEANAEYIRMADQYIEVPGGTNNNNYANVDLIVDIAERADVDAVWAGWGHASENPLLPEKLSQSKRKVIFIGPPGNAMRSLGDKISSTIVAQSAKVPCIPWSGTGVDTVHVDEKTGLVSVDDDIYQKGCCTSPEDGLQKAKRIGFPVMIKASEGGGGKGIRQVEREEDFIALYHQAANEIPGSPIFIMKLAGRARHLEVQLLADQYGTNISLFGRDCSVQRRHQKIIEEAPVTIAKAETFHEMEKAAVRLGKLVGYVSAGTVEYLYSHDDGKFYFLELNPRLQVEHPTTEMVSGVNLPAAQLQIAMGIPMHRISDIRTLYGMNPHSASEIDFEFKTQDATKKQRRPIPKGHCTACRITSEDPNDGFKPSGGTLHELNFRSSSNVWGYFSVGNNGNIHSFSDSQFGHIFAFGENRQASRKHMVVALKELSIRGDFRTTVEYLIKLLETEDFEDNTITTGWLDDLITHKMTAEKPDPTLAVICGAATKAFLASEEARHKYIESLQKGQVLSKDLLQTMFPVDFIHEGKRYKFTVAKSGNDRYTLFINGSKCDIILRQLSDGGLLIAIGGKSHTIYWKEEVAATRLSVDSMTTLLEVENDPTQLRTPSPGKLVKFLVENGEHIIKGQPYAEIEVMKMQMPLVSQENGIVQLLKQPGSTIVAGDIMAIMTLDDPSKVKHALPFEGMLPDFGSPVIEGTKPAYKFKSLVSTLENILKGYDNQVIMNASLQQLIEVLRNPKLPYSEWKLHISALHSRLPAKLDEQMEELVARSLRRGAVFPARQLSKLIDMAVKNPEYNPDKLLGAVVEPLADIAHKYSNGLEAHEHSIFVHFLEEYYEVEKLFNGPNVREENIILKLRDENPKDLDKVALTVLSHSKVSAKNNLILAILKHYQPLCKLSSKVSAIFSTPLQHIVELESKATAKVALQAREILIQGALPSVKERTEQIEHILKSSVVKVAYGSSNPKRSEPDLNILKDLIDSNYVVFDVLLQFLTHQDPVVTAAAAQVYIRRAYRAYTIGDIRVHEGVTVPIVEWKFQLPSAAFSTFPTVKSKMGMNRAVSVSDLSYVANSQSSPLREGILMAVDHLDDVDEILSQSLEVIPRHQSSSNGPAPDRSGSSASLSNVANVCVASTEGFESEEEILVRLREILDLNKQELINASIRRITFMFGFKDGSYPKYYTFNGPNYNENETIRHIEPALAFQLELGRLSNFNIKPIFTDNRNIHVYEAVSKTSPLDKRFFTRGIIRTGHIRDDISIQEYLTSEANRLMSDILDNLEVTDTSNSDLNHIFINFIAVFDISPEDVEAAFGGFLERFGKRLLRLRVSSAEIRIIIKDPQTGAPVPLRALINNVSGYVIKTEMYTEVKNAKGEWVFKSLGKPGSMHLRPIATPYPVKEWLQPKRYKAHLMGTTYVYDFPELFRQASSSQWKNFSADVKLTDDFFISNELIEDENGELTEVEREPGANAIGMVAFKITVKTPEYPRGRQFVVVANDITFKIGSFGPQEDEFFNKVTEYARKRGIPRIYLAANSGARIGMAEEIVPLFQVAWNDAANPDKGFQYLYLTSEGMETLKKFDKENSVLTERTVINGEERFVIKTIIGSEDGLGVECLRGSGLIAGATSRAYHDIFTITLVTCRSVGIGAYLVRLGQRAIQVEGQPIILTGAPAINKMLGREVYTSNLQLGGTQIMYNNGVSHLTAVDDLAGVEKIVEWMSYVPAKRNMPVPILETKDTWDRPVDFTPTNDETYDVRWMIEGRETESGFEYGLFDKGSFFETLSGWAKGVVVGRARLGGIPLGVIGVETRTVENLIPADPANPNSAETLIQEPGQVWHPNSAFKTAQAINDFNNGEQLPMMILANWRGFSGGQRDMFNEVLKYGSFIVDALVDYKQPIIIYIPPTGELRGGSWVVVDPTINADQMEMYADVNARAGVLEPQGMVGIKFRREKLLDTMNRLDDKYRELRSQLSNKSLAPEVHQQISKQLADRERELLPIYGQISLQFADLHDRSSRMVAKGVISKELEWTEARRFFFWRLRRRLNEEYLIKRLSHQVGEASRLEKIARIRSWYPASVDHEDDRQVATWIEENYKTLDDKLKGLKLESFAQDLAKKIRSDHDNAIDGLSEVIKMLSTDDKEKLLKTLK

C. krusei ATCC 6258 = test: Anti-Fungal (Candida) Activity Assay, broth microtiter MIC; type: cell-based; conditions: Pichia kudriavzevii, ATCC6258; 3 replicates, MIC recorded at 48 h; read-out: MIC C. krusei ATCC 6258
How it was run: (§3)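 Following CLSI M27-A3 broth microdilution, direct colony suspensions in RPMI 1640+MOPS were challenged with compounds. MICs were read visually against the growth control after 48 h.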

C. albicans ATCC 90028 = test: as above; type: cell-based; conditions: ATCC90028, 3 replicates, MIC recorded at 48 h, read-out: MIC C. albicans ATCC 90028
How it was run: as §3

[5] = tested on: C. parapsilosis ATCC 22019; test: as above; type: cell-based; conditions: Lodderomyces parapsilosis, ATCC22019; 3 replicates, MIC recorded at 48 h; read-out: MIC C. parapsilosis ATCC 22019
How it was run: as §3

human (hACC2) ACC2, sequence (O00763 whole entry): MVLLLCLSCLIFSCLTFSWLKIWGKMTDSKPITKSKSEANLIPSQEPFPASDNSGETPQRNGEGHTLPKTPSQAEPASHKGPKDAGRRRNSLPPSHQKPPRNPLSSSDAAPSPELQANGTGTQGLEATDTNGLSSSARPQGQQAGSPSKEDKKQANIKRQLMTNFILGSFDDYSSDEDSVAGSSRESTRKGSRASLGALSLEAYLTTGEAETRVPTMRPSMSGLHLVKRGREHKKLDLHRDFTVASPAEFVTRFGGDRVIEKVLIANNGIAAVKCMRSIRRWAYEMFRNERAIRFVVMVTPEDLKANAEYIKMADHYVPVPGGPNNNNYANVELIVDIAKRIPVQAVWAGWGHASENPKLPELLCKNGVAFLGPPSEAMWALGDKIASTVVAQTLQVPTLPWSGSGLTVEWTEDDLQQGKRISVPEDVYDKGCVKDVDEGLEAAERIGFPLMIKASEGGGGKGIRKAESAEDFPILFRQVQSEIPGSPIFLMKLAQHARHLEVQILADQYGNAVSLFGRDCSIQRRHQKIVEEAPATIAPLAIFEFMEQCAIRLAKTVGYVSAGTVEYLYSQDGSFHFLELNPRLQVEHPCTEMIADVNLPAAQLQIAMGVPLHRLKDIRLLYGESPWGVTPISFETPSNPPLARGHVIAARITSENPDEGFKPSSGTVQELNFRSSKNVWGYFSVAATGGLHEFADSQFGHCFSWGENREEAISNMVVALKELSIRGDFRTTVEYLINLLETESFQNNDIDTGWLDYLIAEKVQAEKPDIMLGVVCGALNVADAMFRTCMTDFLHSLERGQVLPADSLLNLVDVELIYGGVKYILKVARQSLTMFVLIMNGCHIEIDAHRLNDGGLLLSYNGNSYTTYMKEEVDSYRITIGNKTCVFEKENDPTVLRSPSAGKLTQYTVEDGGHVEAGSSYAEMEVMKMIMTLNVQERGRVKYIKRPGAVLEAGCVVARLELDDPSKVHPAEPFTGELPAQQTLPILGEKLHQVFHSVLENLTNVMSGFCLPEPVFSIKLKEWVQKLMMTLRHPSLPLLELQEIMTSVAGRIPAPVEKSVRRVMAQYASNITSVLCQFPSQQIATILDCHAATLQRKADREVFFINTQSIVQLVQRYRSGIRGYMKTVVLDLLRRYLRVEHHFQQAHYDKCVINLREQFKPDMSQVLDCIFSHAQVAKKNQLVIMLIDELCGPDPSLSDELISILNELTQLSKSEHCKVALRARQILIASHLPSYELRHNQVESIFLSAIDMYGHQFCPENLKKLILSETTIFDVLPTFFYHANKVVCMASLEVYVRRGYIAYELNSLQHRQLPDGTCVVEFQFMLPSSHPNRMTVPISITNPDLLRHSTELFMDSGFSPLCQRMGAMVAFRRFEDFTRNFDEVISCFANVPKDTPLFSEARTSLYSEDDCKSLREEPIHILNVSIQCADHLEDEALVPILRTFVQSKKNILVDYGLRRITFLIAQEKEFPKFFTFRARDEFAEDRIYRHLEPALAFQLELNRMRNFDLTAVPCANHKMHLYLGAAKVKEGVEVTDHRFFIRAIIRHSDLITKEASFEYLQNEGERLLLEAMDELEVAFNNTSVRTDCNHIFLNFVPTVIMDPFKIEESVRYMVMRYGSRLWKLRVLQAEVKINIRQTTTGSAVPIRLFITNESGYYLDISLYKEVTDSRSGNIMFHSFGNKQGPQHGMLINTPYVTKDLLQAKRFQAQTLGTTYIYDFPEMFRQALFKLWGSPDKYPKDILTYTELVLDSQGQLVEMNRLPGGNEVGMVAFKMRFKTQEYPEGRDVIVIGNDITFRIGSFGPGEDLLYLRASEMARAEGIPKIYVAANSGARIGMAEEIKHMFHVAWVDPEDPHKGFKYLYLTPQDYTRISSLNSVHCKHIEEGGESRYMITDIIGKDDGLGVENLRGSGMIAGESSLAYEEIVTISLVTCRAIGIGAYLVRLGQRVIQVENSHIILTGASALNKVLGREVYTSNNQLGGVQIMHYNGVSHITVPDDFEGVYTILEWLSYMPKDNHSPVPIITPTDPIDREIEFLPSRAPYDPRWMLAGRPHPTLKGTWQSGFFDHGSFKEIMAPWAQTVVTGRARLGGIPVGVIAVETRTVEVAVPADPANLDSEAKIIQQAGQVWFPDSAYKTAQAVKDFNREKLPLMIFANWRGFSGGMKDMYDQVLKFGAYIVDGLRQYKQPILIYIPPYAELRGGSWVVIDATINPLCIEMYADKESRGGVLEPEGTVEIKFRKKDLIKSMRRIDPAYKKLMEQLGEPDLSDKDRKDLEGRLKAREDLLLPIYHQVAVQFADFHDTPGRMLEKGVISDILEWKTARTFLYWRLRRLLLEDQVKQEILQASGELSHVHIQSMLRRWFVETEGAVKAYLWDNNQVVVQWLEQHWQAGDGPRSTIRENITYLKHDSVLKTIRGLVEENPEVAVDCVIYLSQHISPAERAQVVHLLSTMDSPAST

SMILES	IC50 (human (hACC2) ACC2) [nM]	IC90 (Rhizoctonia solani (Rs); Table 4a) [mg/L]	IC90 (Rhizoctonia solani (Rs); Table 4b) [mg/L]	IC90 ([1]; Table 4a) [mg/L]	IC90 ([1]; Table 4b) [mg/L]	Concentration at 90% Inhibition St (Septoria tritici (St); Table 4b)	IC90 (Septoria tritici (St); Table 4a) [mg/L]	IC90 (Diplodia maydis (Dm); Table 4a) [mg/L]	IC90 (Diplodia maydis (Dm); Table 4b) [mg/L]	IC90 ([2]; Table 4a) [mg/L]	Concentration at 90% Inhibition Pc ([2]; Table 4b)	IC90 ([3]; Table 4a) [mg/L]	IC90 ([3]; Table 4b) [mg/L]	IC90 ([4]; Table 4a) [mg/L]	IC90 ([4]; Table 4b) [mg/L]	IC90 (Botrtyis cinerea (Bc); Table 4b) [mg/L]	IC50 (fungal (fACC2) ACC2) [nM]	MIC (C. krusei ATCC 6258) [mg/L]	MIC (C. albicans ATCC 90028) [mg/L]	MIC [5] [mg/L]	further results
COc1ccc(F)cc1[C@H](Cn1c(=O)n(C(C)(C)C(=O)N2CC=CC2)c(=O)c2c(C)c(-n3cccn3)sc21)OC1CCOCC1 [Compound I-45, (R)-3-(1-(2,5-dihydro-1H-pyrrol-1-yl)-2-methyl-1-oxopropan-2-yl)-1-(2-(5-fluoro-2-methoxyphenyl)-2-((tetrahydro-2H-pyran-4-yl)oxy)ethyl)-5-methyl-6-(1H-pyrazol-1-yl)thieno[2,3-d]pyrimidine-2,4(1H,3H)-dione]	10 to 40	2 (≈ 3.14 µM)	2 (≈ 3.14 µM)	2 (≈ 3.14 µM)	2 (≈ 3.14 µM)	D (“D” provided a compound concentration of >50 ppm at 90% inhibition of fungal pathogens)	> 50	> 50	10 (≈ 15.7 µM)	> 50	D (“D” provided a compound concentration of >50 ppm at 90% inhibition of fungal pathogens)	2 (≈ 3.14 µM)	2 (≈ 3.14 µM)	> 50	10 (≈ 15.7 µM)	10 (≈ 15.7 µM)	0.6 to 3	0.25 to 1 (≈ 0.392 to 1.57 µM)	2.1 to 4 (≈ 3.29 to 6.27 µM)	2.1 to 4 (≈ 3.29 to 6.27 µM)	IC90 (Botrtyis cinerea (Bc); Table 4a): > 50 mg/L
COc1ccc(F)cc1[C@H](Cn1c(=O)n(C(C)(C)C(=O)O)c(=O)c2c(C)c(-n3cccn3)sc21)OCCC#N [Compound I-82]	10 to 40		10 (≈ 18 µM)		> 50				> 50				2 (≈ 3.6 µM)		10 (≈ 18 µM)	10 (≈ 18 µM)	0.6 to 3	> 4.1	> 4.1	> 4.1	IC90 (Septoria tritici (St); Table 4b): > 50 mg/L; IC90 ([2]; Table 4b): > 50 mg/L
COc1ccc(F)cc1[C@H](Cn1c(=O)n(C(C)(C)C(=O)N2CCCC2)c(=O)c2c(C)c(-n3cccn3)sc21)OCCC#N [Compound I-81, (R)-3-(1-(5-fluoro-2-methoxyphenyl)-2-(5-methyl-3-(2-methyl-1-oxo-1-(pyrrolidin-1-yl)propan-2-yl)-2,4-dioxo-6-(1H-pyrazol-1-yl)-3,4-dihydrothieno[2,3-d]pyrimidin-(2H)-yl)ethoxy)propanenitrile]	3 to 10		0.08 (≈ 0.131 µM)		2 (≈ 3.29 µM)				2 (≈ 3.29 µM)				0.08 (≈ 0.131 µM)		0.4 (≈ 0.657 µM)	0.4 (≈ 0.657 µM)	0.6 to 3	> 4.1	> 4.1	> 4.1	IC90 (Septoria tritici (St); Table 4b): > 50 mg/L; IC90 ([2]; Table 4b): > 50 mg/L
COc1ccc(F)cc1[C@H](Cn1c(=O)n(C(C)(C)C(=O)N2CCCC2)c(=O)c2c(C)c(-n3cccn3)sc21)OCCO [Compound I-36, (R)-1-(2-(5-fluoro-2-methoxyphenyl)-2-(2-hydroxy-ethoxy)ethyl)-5-methyl-3-(2-methyl-1-oxo-1-(pyrrolidin-1-yl)propan-2-yl)-6-(1H-pyrazol-1-yl)thieno[2,3-d]pyrimidine-2,4(1H,3H)-dione]	3 to 10	> 50	10 (≈ 16.7 µM)	> 50	10 (≈ 16.7 µM)	D (“D” provided a compound concentration of >50 ppm at 90% inhibition of fungal pathogens)	> 50	> 50	> 50	> 50	D (“D” provided a compound concentration of >50 ppm at 90% inhibition of fungal pathogens)	2 (≈ 3.34 µM)	2 (≈ 3.34 µM)	2 (≈ 3.34 µM)	2 (≈ 3.34 µM)	10 (≈ 16.7 µM)	0.6 to 3	1.1 to 2 (≈ 1.83 to 3.34 µM)	2.1 to 4 (≈ 3.5 to 6.67 µM)	2.1 to 4 (≈ 3.5 to 6.67 µM)	IC90 (Botrtyis cinerea (Bc); Table 4a): > 50 mg/L
COc1ccccc1[C@H](Cn1c(=O)n(C(C)(C)C(=O)N2CCCC2)c(=O)c2c(C)c(-n3cccn3)sc21)OC(C)C [Compound I-18, (R)-1-(2-isopropoxy-2-(2-methoxyphenyl)ethyl)-5-methyl-3-(2-methyl-1-oxo-2-(pyrrolidin-1-yl)propan-2-yl)-6-(H-pyrazol-1-yl)thieno[2,3-d]pyrimidine-2,4(1H,3H)-dione]	3 to 10	0.4 (≈ 0.69 µM)	0.4 (≈ 0.69 µM)	2 (≈ 3.45 µM)	2 (≈ 3.45 µM)	D (“D” provided a compound concentration of >50 ppm at 90% inhibition of fungal pathogens)	> 50	2 (≈ 3.45 µM)	2 (≈ 3.45 µM)	> 50	D (“D” provided a compound concentration of >50 ppm at 90% inhibition of fungal pathogens)	0.08 (≈ 0.138 µM)	0.08 (≈ 0.138 µM)	0.4 (≈ 0.69 µM)	0.4 (≈ 0.69 µM)	2 (≈ 3.45 µM)	0.6 to 3	2.1 to 4 (≈ 3.62 to 6.9 µM)	1.1 to 2 (≈ 1.9 to 3.45 µM)	2.1 to 4 (≈ 3.62 to 6.9 µM)	IC90 (Botrtyis cinerea (Bc); Table 4a): 2 mg/L (≈ 3.45 µM)
COc1ccc(F)cc1[C@H](Cn1c(=O)n(C(C)(C)C(=O)NC(C)C)c(=O)c2c(C)c(-n3cccn3)sc21)OC(C)C.I [Compound I-1, (R)-2-(I-(2-(5-fluoro-2-methoxyphenyl)-2-isopropoxyethyl)-5-methyl-2,4-dioxo-6-(1H-pyrazol-1-yl)-1,4-dihydrothieno[2,3-d]pyrimidin-3(2H)-yl)-N-isopropyl-2-methylpropanamide]	10 to 40	2	2	2	2	D (“D” provided a compound concentration of >50 ppm at 90% inhibition of fungal pathogens)	> 50	2	2	> 50	D (“D” provided a compound concentration of >50 ppm at 90% inhibition of fungal pathogens)	0.08	0.08	0.4	0.4	0.4	0.6 to 3	0.25 to 1	2.1 to 4	2.1 to 4	IC90 (Botrtyis cinerea (Bc); Table 4a): 0.4 mg/L
